Experimental findings from US20260265300A1, “TARGETING PRAC1 IN STEROID HORMONE DRIVEN CANCER” (Fred Hutchinson Cancer Center, priority 2023, published 2026) are described below.

Data set [1] has as its system LNCaP-abl cells. Kind of data set: Proliferation of LNCaP-abl cells with enzalutamide by live cell imaging. Format: cell-based. The settings on record: 10 μM enzalutamide. The procedure: Resistance to ARSI therapy is a major driver of PC related mortality. In this example, PRAC1-negative LNCaP-abl cells were grown in fully supplemented growth media (RPMI plus 10% FBS) in the absence or presence of 10 μM enzalutamide. Cell proliferation was determined longitudinally by live cell imaging using a Cytation™ 5 imaging instrument. […] Restoring PRAC1 function can result in re-sensitization of ARSI therapy (FIG. 4).

Data set [2] has as its system LNCaP-abl cells. Put plainly: Cell viability of LNCaP-abl cells exposed to PRAC1 peptides (CellTiter-Blue, 72 hours). As to conditions: increasing concentrations of peptide. The class given is cell-based. The procedure:
(§1) PRAC1-negative LNCaP-abl cells were grown and exposed to increasing concentrations of the cell-permeable peptides, and cell viability was measured after 72 hours using CellTiter-Blue® (Patel et al., Cancer Res. Commun. 2(5):277-285 2022. doi: 10.1158/2767-9764.crc-21-0156. Epub 2022 May 2). […] The PRAC-F6 peptide was further tested for cell permeability.
Cell viability of androgen receptor negative and androgen receptor positive cells was tested in vitro. The androgen positive cell lines LNCaP and LNCaP-abl and the androgen receptor negative cell lines PC3 and DU145 were incubated with the PRAC-F6, carboxy terminal peptide including the TAT cell penetration peptide. Cell viability was measured after 72 hours using CellTiter-Blue®.
LNCaP-abl cells were incubated with increasing concentrations of PRAC1 peptides, and cell viability was determined after 72 hours using CellTiter-Blue®. […]
For orientation: Alamar Blue is a resazurin reagent that responds to reducing activity.

A further data set concerns MCF7. Put plainly: Cell viability of MCF7 breast cancer cells (CellTiter-Blue). As to conditions: MCF7 (estrogen and progesterone receptor positive), relative to scrambled control peptide. Format: cell-based. From the text:
Estrogen and progesterone receptor positive breast cancer cell line MCF7 with PRAC1 peptide […] FIG. 8A.

Data set [3] has as its system human prostate cancer LAPC4-CR cells. Put plainly: In vivo prostate cancer xenograft model (LAPC4-CR in castrated NSG mice). The settings on record: castrated male NSG mice, intraperitoneally daily, versus scrambled control peptide. The procedure:
The peptide was also tested in an in vivo in prostate cancer xenograft model. Male NOD SCID gamma (NSG) mice were chemically castrated by subcutaneous injection of degarelix. Mice were then engrafted with PRAC1-negative human prostate cancer LAPC4-CR cells. When tumors reached palpable size, PRAC1 peptide PRAC-F6 or a scrambled control peptide (sc) were delivered intraperitoneally daily. Tumor size was measured by caliper.

Another data set relates to PC3. Kind of data set: Cell viability of androgen receptor negative PC3 cells (CellTiter-Blue, 72 hours). Format: cell-based. As to conditions: PC3 (AR negative). The procedure:
(§2) Cell viability of androgen receptor negative and androgen receptor positive cells was tested in vitro. The androgen positive cell lines LNCaP and LNCaP-abl and the androgen receptor negative cell lines PC3 and DU145 were incubated with the PRAC-F6, carboxy terminal peptide including the TAT cell penetration peptide.

The next data set relates to DU145. Kind of data set: Cell viability of androgen receptor negative DU145 cells (CellTiter-Blue, 72 hours). The settings on record: DU145 (AR negative). Format: cell-based. How it is done: as §2
Data set [4] deals with LNCaP-abl cells. The settings on record: N-terminally FITC-labeled peptide, flow cytometry. How it is done: as §1
Background: In flow cytometry, cells or beads pass a laser one at a time.

The subject of the next data set is LNCaP. Kind of data set: Cell viability of androgen receptor positive LNCaP cells (CellTiter-Blue, 72 hours). The class given is cell-based. The settings on record: LNCaP (AR positive). How it is done: as §2
For another data set, the target named is T1, AR LBD (Homo sapiens, UniProt P10275).
T1 sequence (P10275 669-900 limits assumed): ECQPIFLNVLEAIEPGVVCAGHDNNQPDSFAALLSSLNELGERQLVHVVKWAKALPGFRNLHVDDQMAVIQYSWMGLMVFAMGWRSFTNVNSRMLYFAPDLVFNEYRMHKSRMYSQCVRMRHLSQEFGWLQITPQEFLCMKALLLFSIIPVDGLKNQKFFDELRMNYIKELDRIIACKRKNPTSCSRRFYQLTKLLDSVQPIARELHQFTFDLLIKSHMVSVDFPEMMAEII
Kind of data set: Recombinant protein-based binding assay by surface plasmon resonance. As to conditions: highly stringent conditions (0.5M NaCl). On the technique in general: Surface plasmon resonance follows binding to a sensor surface in real time, without labels.

A further data set concerns the target T2, full-length AR (Homo sapiens, UniProt P10275).
T2 construct: made in house
T2 sequence (P10275 1-920): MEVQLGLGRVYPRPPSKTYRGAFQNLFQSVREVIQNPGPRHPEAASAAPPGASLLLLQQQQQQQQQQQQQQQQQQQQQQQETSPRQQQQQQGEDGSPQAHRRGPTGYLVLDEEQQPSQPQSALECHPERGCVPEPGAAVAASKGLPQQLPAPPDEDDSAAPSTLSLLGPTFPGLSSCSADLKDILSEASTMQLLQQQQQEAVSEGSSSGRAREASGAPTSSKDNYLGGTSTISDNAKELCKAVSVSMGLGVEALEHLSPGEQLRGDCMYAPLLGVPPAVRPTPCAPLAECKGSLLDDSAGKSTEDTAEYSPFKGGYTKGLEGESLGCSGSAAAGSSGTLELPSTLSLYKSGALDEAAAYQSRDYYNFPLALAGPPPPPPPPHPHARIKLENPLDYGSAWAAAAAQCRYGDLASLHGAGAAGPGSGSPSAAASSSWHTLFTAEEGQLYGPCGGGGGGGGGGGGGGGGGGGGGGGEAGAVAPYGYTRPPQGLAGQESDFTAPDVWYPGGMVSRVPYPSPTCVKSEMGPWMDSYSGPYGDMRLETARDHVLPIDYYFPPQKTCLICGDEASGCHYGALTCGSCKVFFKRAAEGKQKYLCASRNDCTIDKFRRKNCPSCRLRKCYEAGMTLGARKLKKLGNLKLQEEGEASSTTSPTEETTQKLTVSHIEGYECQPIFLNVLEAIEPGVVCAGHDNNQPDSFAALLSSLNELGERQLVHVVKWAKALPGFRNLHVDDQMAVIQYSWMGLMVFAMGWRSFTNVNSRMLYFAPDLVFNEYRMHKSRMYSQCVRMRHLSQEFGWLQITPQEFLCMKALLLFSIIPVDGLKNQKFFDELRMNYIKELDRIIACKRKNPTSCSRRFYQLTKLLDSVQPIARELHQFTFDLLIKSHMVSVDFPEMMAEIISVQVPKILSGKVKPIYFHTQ
Kind of data set: Binding to purified full-length AR and effect on its DNA binding activity. The class given is biochemical.

Entries after “also recorded” stand apart in the source; their conditions may differ. Like-named read-outs stand apart in the source and are kept apart here.

Regarding `CNC(=O)c1ccc(N2C(=S)N(c3ccc(C#N)c(C(F)(F)F)c3)C(=O)C2(C)C)cc1F` [enzalutamide], the “cell proliferation / sensitivity to enzalutamide” value with LNCaP-abl cells [1] (LNCaP-abl cells transduced with control vector (RFP), RPMI plus 10% FBS) was “resistant to enzalutamide across a broad concentration range”; with LNCaP-abl cells [1] (LNCaP-abl cells with re-expression of PRAC1 (lentiviral ORF1)) it was “sensitization to enzalutamide and significant growth suppression; also recorded: restoration of sensitivity to this drug”.
Turning to “PPRVLFSLARKHLLRKKRRQRRRG [SEQ ID NO:27, isoleucine-to-alanine substitution mutant]”, the cell viability result in the data set with LNCaP-abl cells [2] is given as “no effect on cell viability”.
With “PPRVLFSLIAKHLLRKKRRQRRRG [SEQ ID NO:28, arginine-to-alanine mutant]”, the cell viability entry with LNCaP-abl cells [2] is on record as “attenuated activity on cell viability”.
Consider PPRVLFSLIRKHLLRKKRRQRRRG [SEQ ID NO:18], for which the cell viability result in the data set on MCF7 is “dose-dependent decrease in cell viability; also recorded: dose-dependent decrease is cell viability”; in the data set on LNCaP-abl cells [2], “profound anti-tumor cell activity”.
“LFSLIRKHLLRKKRRQRRRG [PRAC1-F6, C-terminus of PRAC1 linked to the cell permeable TAT peptide]”: the “tumor growth (tumor size by caliper)” value in data set [3] is “suppression of LAPC4-CR tumor growth”; in data set [3] (listed as PRAC-F6), “suppression of tumor growth”. For the same molecule, the cell viability result in the data set on PC3 is listed as “Only AR-expressing cell lines show profound dose-dependent decrease in cell viability”; with PC3 (listed as PRAC-F6), “only AR-expressing cell lines show a profound loss of viability”; with DU145, “Only AR-expressing cell lines show profound dose-dependent decrease in cell viability”; in the data set on DU145 (listed as PRAC-F6) it was “only AR-expressing cell lines show a profound loss of viability”; in the data set with LNCaP-abl cells [2], “biologically active in reducing cell viability; also recorded: profound dose-dependent decrease in cell viability”; in the data set with LNCaP-abl cells [2] (listed as PRAC-F6) it was “profound loss of viability”. The cell viability result in the data set on LNCaP is listed as “profound dose-dependent decrease in cell viability”; in the data set on LNCaP (listed as PRAC-F6), “profound loss of viability”. For the same molecule, the “peptide uptake (cellular internalization)” value with LNCaP-abl cells [4] (listed as PRAC-F6) was “rapid cellular internalization”; with LNCaP-abl cells [4] (listed as SEQ ID NO:17), “uptake”.
As to “MLACKVRQAGFWSPPLQREQRCCAPISQIKDRPILLPPRVLFSLIRKHLL (listed as Homo sapiens) [PRAC1, PRAC1 protein encoded by ORF1 of PRAC1 gene]”, in the data set with AR LBD, the “binding to AR LBD” value is recorded as “specifically binds the AR LBD”. Also, the “binding to full-length AR and change of its DNA binding activity” value with full-length AR is “specifically binds and alters full-length AR's DNA binding activity”.
